Laboratory results published in publication PMC11267380, “USP25 Elevates SHLD2‐Mediated DNA Double‐Strand Break Repair and Regulates Chemoresponse in Cancer” (Advanced Science, 2024).

Tested on: USP25 phosphorylation at SQ/TQ motif in HEK293T cells
Test: USP25 phosphorylation (p-SQ/TQ) after IR, IP and immunoblot
Format: cell-based
Conditions: IR (10 Gy), Ku55933 (25 µM) for 2 h pretreatment or phosphatase treatment of immunoprecipitated USP25
Experimental: Figure 4 Regulation of the DDR signaling by USP25. a) HEK293T cells were left untreated or treated with IR (10 Gy) or 5‐Fu (20 uM). USP25 was immunoprecipitated and immunoblotted with phospho‐SQ/TQ (p‐SQ/TQ). b) HEK293T cells were pretreated with Ku55933 (25 µM) for 2 h followed by treatment with IR(10 Gy). After 1 h, USP25 was immunoprecipitated, left untreated, or treated with phosphatase and immunoblotted with p‐SQ/TQ. c) HEK293T cells transfected with USP25^WT and indicated constructs were left treated with IR(10 Gy). USP25 was immunoprecipitated and immunoblotted with p‐SQ/TQ. d) USP25 knockdowm U2OS cells rescued with USP25WT or USP25T523A were treated with IR (2 Gy), and co‐localization USP25 with γH2AX was detected by immunofluorescence. n>80 in each group. e) HEK293T cells were left untreated or treated with 5‐Fu (20 uM). […] The interaction USP25 and MDC1 deletions was detected. g) HEK293T cells transfected with USP25^WT or USP25^T523A were treated with IR, and cell lysates were incubated with GST or GST‐MDC1‐BRCT in vitro. The interaction USP25 and MDC1‐BRCT was detected. h) Non‐phosphorylated or phosphorylated Thr523 peptide was conjugated to beads and incubated with purified GST‐MDC1‐BRCT domain in buffer. […]

O=c1cc(-c2cccc3c2Sc2ccccc2S3)oc(N2CCOCC2)c1 [Ku55933]
USP25 phosphorylation: abolished
